Assay results from publication PMC4273223, “(2R,1'S,2'R)- and (2S,1'S,2'R)-3-[2-Mono(di,tri)fluoromethylcyclopropyl]alanines and their incorporation into hormaomycin analogues” (Beilstein Journal of Organic Chemistry, 2014).
≈ marks a conversion by molar mass, not a printed value. Counter-ions that a name gives are not always drawn. Starred links: 1 amine or outer side, 2 acyl side, 3 side chain; linkers in the order of their positions; H or OH if unused. Positions of bridges follow the written chain, without caps; N, C: chain ends. Non-standard residues stand in square brackets, D forms with d. Residues, ends and D or L forms follow the SMILES beside them. *: point of attachment. X1 = O=C([C@@H](C[C@@H]1C[C@H]1C(F)(F)F)N[*:1])[*:2]; X2 = C/C=C\[C@H]1C[C@@H](C(=O)[*:2])N([*:1])C1; Phe(3R-Me) = C[C@H](c1ccccc1)[C@H](N)C(=O)O; d(aThr) = C[C@@H](O)[C@@H](N)C(=O)O; Tfa = O=C(C(F)(F)F)*

Columns and labels:
L6 cells = assay: cells
Protocol: (§1) In vitro antiprotozoal activity assays: The in vitro activities against the protozoan parasites L. donovani and P. falciparum as well as cytotoxicity assessments against L6 cells were determined as reported elsewhere.

[1] = tested on: Plasmodium falciparum strain K1; assay: microbe, parasite or virus in culture
Protocol: (§2) The syntheses of hormaomycin (1) itself and of its all-peptide aza-analogues 60 and 61 (Figure 6) as developed by Zlatopolskiy et al., were reproduced in order to provide large enough quantities for biological tests of their antimalarial activities.
as §1

[2] = tested on: Leishmania donovani strain MHOM-ET-67/L82; assay: microbe, parasite or virus in culture; details: for activity against L. donovani (in words): in vitro
Protocol: as §2, §1

coryneform bacteria = tested on: coryneform bacteria; set-up: method as in doi:10.1002/hlca.19890720303, doi:10.1002/ange.19901020122; details: cited from earlier work
[3] = set-up: method as in PMID 12760691; details: cited from earlier work

Structure (SMILES): C/C=C\[C@H]1C[C@H]2C(=O)O[C@H](C)[C@@H](NC(=O)C(F)(F)F)C(=O)N[C@@H]([C@H](C)c3ccccc3)C(=O)N[C@H](C[C@@H]3C[C@H]3C(F)(F)F)C(=O)N[C@@H]([C@H](C)c3ccccc3)C(=O)N[C@@H]([C@@H](C)CC)C(=O)N2C1 [Compound 59] (Tfa-[d(aThr)][Phe(3R-Me)][X1][Phe(3R-Me)]I[X2]; ester 1-C)
- IC50 against L6 cells (L6 cells): >90 µg/mL
- IC50 against Plasmodium falciparum strain K1 [1]: 0.265 µg/mL
- IC50 against Leishmania donovani strain MHOM-ET-67/L82 [2]: 2.37 µg/mL

Structure (SMILES): CCN(CC)CCCC(C)Nc1ccnc2cc(Cl)ccc12 (stereo not shown) [Chloroquine, reference compound]
- IC50 ([1]; Plasmodium falciparum, K1, read-out: IC50 against Plasmodium falciparum strain K1): 0.089 µg/mL (≈ 0.278 µM)

Structure (SMILES): C/C=C\[C@H]1C[C@H]2C(=O)O[C@H](C)[C@@H](NC(=O)[C@H](C[C@@H]3C[C@H]3[N+](=O)[O-])NC(=O)c3ccc(Cl)n3O)C(=O)N[C@@H]([C@H](C)c3ccccc3)C(=O)N[C@H](C[C@@H]3C[C@H]3[N+](=O)[O-])C(=O)N[C@@H]([C@H](C)c3ccccc3)C(=O)N[C@@H]([C@@H](C)CC)C(=O)N2C1 [Compound 1, hormaomycin]
- inhibitory effect on coryneform bacteria (in words) (coryneform bacteria): exceptionally selective inhibitory effect
- antimalarial activity (in words) [3]: interesting antimalarial activity
- antimalarial activity (in words) ([1]; in vitro): good and selective antimalarial activities
- activity against L. donovani (in words) [2]: showed an activity against L. donovani

Structure (SMILES): CCCCCCCCCCCCCCCCOP(=O)([O-])OCC[N+](C)(C)C [Miltefosine, reference compound]
- IC50 ([2]; Leishmania donovani, read-out: IC50 against Leishmania donovani strain MHOM-ET-67/L82): 0.143 µg/mL (≈ 0.351 µM)

Structure (SMILES): C/C=C\[C@H]1C[C@H]2C(=O)O[C@H](C)[C@@H](NC(C)=O)C(=O)N[C@@H]([C@H](C)c3ccccc3)C(=O)N[C@H](C[C@@H]3C[C@H]3C(F)(F)F)C(=O)N[C@@H]([C@H](C)c3ccccc3)C(=O)N[C@@H]([C@@H](C)CC)C(=O)N2C1 [Compound 58] (Ac-[d(aThr)][Phe(3R-Me)][X1][Phe(3R-Me)]I[X2]; ester 1-C)
- IC50 against L6 cells (L6 cells): >90 µg/mL
- IC50 against Plasmodium falciparum strain K1 [1]: 0.151 µg/mL (≈ 0.169 µM)
- IC50 against Leishmania donovani strain MHOM-ET-67/L82 [2]: 1.73 µg/mL (≈ 1.93 µM)

Structure (SMILES): C/C=C\[C@H]1C[C@H]2C(=O)O[C@H](C)[C@@H](NC(=O)OCc3ccc(C)cc3)C(=O)N[C@@H]([C@H](C)c3ccccc3)C(=O)N[C@H](C[C@@H]3C[C@H]3C(F)(F)F)C(=O)N[C@@H]([C@H](C)c3ccccc3)C(=O)N[C@@H]([C@@H](C)CC)C(=O)N2C1 [Compound 52a]
- IC50 against L6 cells (L6 cells): >90 µg/mL
- IC50 against Plasmodium falciparum strain K1 [1]: 0.042 µg/mL (≈ 0.042 µM)
- IC50 against Leishmania donovani strain MHOM-ET-67/L82 [2]: 2.13 µg/mL (≈ 2.13 µM)

Structure (SMILES): COc1cc([C@@H]2c3cc4c(cc3[C@H](O)[C@H]3COC(=O)[C@H]23)OCO4)cc(OC)c1OC [Podophyllotoxin, reference compound]
- IC50 (L6 cells; Rattus norvegicus, L6, read-out: IC50 against L6 cells): 0.006 µg/mL (≈ 0.0145 µM)

Structure (SMILES): C/C=C\[C@H]1C[C@H]2C(=O)O[C@H](C)[C@@H](NC(=O)[C@H](C[C@@H]3C[C@H]3C(F)(F)F)NC(=O)c3ccc(Cl)n3O)C(=O)N[C@@H]([C@H](C)c3ccccc3)C(=O)N[C@H](C[C@@H]3C[C@H]3C(F)(F)F)C(=O)N[C@@H]([C@H](C)c3ccccc3)C(=O)N[C@@H]([C@@H](C)CC)C(=O)N2C1 [Compound 8a]
- IC50 against L6 cells (L6 cells): 40 µg/mL (≈ 34 µM)
- IC50 against Plasmodium falciparum strain K1 [1]: 0.183 µg/mL (≈ 0.156 µM)
- IC50 against Leishmania donovani strain MHOM-ET-67/L82 [2]: 0.205 µg/mL (≈ 0.174 µM)
- activity against L. donovani (in words) [2]: showed an activity against L. donovani
- activity against L. donovani lower than that of hormaomycin (1) ([2]; relative to hormaomycin (1)): 37%

Structure (SMILES): C/C=C\[C@H]1C[C@H]2C(=O)NC[C@@H](NC(=O)OCc3ccc(C)cc3)C(=O)N[C@@H]([C@H](C)c3ccccc3)C(=O)N[C@H](C[C@@H]3C[C@H]3[N+](=O)[O-])C(=O)N[C@@H]([C@H](C)c3ccccc3)C(=O)N[C@@H]([C@@H](C)CC)C(=O)N2C1 [Compound 61]
- IC50 against Plasmodium falciparum strain K1 [1]: 0.061 µg/mL (≈ 0.0633 µM)
